The test system of the assay is VR1 receptor. The assay is described as follows: High throughput calcium imaging assay (Fura2, Flex Station) of VR1 antagonists, pH 5.1 stimulus. It counts as cell-based. To be noted: 1 uM compound; inhibition of calcium ion influx induced by capsaicin stimulation.
Take `CCCOc1ccc(NC(=O)c2ccc(-c3ncccc3Cl)cn2)cc1` [Compound 341]: the “% Inhibition @ 1 uM” value was “+ (“+” compound exhibited 0-25% inhibition of calcium ion influx induced by capsaicin stimulation.)”.

For the compound `O=C(Nc1ccc(F)cc1)c1ccc(-c2ncccc2Cl)cn1` [Compound 291], the “% Inhibition @ 1 uM” value is reported as “+ (“+” compound exhibited 0-25% inhibition of calcium ion influx induced by capsaicin stimulation.)”.

For `COc1ccc(NC(=O)c2ccc(-c3ncccc3Cl)c(F)c2)cn1` [Compound 153], the “% Inhibition @ 1 uM” value was “+ + (compound exhibited 25-50% inhibition of calcium ion influx induced by capsaicin stimulation)”.

With `COc1ccccc1NC(=O)c1ccc(-c2ncccc2Cl)cc1` [Compound 13], the “% Inhibition @ 1 uM” value is “+ + + + (compound exhibited 75% or greater inhibition of calcium ion influx induced by capsaicin stimulation)”.

Consider `O=C(Nc1ccc2cc[nH]c2c1)c1ccc(-c2ncccc2Cl)cn1` [Compound 340], for which the “% Inhibition @ 1 uM” value is listed as “+ + + + (“+ + + +” compound exhibited 75% or greater inhibition of calcium ion influx induced by capsaicin stimulation.)”.

For the compound `COc1cc(C(=O)Nc2ccc(Br)cn2)ccc1-c1ncccc1Cl` [Compound 226], the “% Inhibition @ 1 uM” value is “+ (“+” compound exhibited 0-25% inhibition of calcium ion influx induced by capsaicin stimulation.)”.

With `N#Cc1ccccc1NC(=O)c1ccc(-c2ncccc2Cl)cn1` [Compound 292], the “% Inhibition @ 1 uM” value is “+ (“+” compound exhibited 0-25% inhibition of calcium ion influx induced by capsaicin stimulation.)”.

For the compound `O=C(Nc1cc[nH]n1)c1ccc(-c2ncccc2Cl)c(F)c1` [Compound 158], the “% Inhibition @ 1 uM” value is “+ (compound exhibited 0-25% inhibition of calcium ion influx induced by capsaicin stimulation)”.

Turning to `CC(C)Oc1cccc(NC(=O)c2ccc(-c3ncccc3Cl)cn2)c1` [Compound 345], the “% Inhibition @ 1 uM” value is reported as “+ (“+” compound exhibited 0-25% inhibition of calcium ion influx induced by capsaicin stimulation.)”.

`Cc1cc(C)nc(NC(=O)c2ccc(-c3ncccc3Cl)cn2)c1` [Compound 312]: the “% Inhibition @ 1 uM” value is given as “+ (“+” compound exhibited 0-25% inhibition of calcium ion influx induced by capsaicin stimulation.)”.

In the case of `O=C(Nc1ccc(N2CCNCC2)cc1)c1ccc(-c2ncccc2Cl)cc1` [Compound 45], the “% Inhibition @ 1 uM” value is listed as “+ (compound exhibited 0-25% inhibition of calcium ion influx induced by capsaicin stimulation)”.

Consider `COc1cc(C(=O)Nc2ccc3ncccc3c2)ccc1-c1ncccc1Cl` [Compound 233], for which the “% Inhibition @ 1 uM” value is “+ + + + (“+ + + +” compound exhibited 75% or greater inhibition of calcium ion influx induced by capsaicin stimulation.)”.

On to `COc1cc(C(=O)Nc2ccc(OC)c(C(F)(F)F)c2)ccc1-c1ncccc1Cl` [Compound 258], for which the “% Inhibition @ 1 uM” value was “+ + (“+ +” compound exhibited 25-50% inhibition of calcium ion influx induced by capsaicin stimulation.)”.

For `O=C(Nc1ccncc1)c1ccc(-c2ncccc2Cl)cc1F` [Compound 62], the “% Inhibition @ 1 uM” value is listed as “+ (compound exhibited 0-25% inhibition of calcium ion influx induced by capsaicin stimulation)”.

Consider `O=C(Nc1ccc(Br)cn1)c1ccc(-c2ncccc2Cl)cc1` [Compound 49], for which the “% Inhibition @ 1 uM” value was “+ + (compound exhibited 25-50% inhibition of calcium ion influx induced by capsaicin stimulation)”.

Take `O=C(Nc1ccc(N2CCNCC2)c(Cl)c1)c1ccc(-c2ncccc2Cl)cc1` [Compound 284]: the “% Inhibition @ 1 uM” value is given as “+ + + (“+ + +” compound exhibited 50-75% inhibition of calcium ion influx induced by capsaicin stimulation.)”.

In the case of `CC(C)(C)c1ccc(NC(=O)c2ccc(-c3ncccc3Cl)c(F)c2)cc1` [Compound 125], the “% Inhibition @ 1 uM” value is “+ + + + (compound exhibited 75% or greater inhibition of calcium ion influx induced by capsaicin stimulation)”.

As to `O=C(Nc1ccc2ccccc2c1)c1ccc(-c2ncccc2Cl)c(F)c1` [Compound 160], the “% Inhibition @ 1 uM” value is “+ + + + (compound exhibited 75% or greater inhibition of calcium ion influx induced by capsaicin stimulation)”.

For the compound `O=C(Nc1ccncc1)c1ccc(-c2ncccc2Cl)cc1` [Compound 7], the “% Inhibition @ 1 uM” value was “+ + + + (compound exhibited 75% or greater inhibition of calcium ion influx induced by capsaicin stimulation)”.

Regarding `O=C(Nc1ccc(Cl)c(C(=O)O)c1)c1ccc(-c2ncccc2Cl)c(F)c1` [Compound 166], the “% Inhibition @ 1 uM” value is listed as “+ + + + (compound exhibited 75% or greater inhibition of calcium ion influx induced by capsaicin stimulation)”.

As for `COc1cc(C(=O)Nc2cccc(C(=O)O)c2)ccc1-c1ncccc1Cl` [Compound 241], the “% Inhibition @ 1 uM” value is reported as “+ (“+” compound exhibited 0-25% inhibition of calcium ion influx induced by capsaicin stimulation.)”.

For the compound `COc1cc(C(=O)Nc2cc(OC)c(OC)c(OC)c2)ccc1-c1ncccc1Cl` [Compound 246], the “% Inhibition @ 1 uM” value is reported as “+ + + + (“+ + + +” compound exhibited 75% or greater inhibition of calcium ion influx induced by capsaicin stimulation.)”.

As for `CCOC(=O)c1ccc(NC(=O)c2ccc(-c3ncccc3Cl)cn2)cc1` [Compound 333], the “% Inhibition @ 1 uM” value is on record as “+ (“+” compound exhibited 0-25% inhibition of calcium ion influx induced by capsaicin stimulation.)”.

On to `COc1ccc(NC(=O)c2ccc(-c3ncccc3Cl)c(OC)c2)cn1` [Compound 230], for which the “% Inhibition @ 1 uM” value was “+ + (“+ +” compound exhibited 25-50% inhibition of calcium ion influx induced by capsaicin stimulation.)”.

With `CC(C)(CO)NC(=O)c1ccc(-c2ncccc2Cl)cc1` [Compound 41], the “% Inhibition @ 1 uM” value is “+ (compound exhibited 0-25% inhibition of calcium ion influx induced by capsaicin stimulation)”.

Consider `COc1cccc(NC(=O)c2ccc(-c3ncccc3Cl)c(OC)c2)c1` [Compound 196], for which the “% Inhibition @ 1 uM” value is “+ + (compound exhibited 25-50% inhibition of calcium ion influx induced by capsaicin stimulation)”.

On to `CCC(C)(C)NC(=O)c1ccc(-c2ncccc2Cl)cc1` [Compound 53], for which the “% Inhibition @ 1 uM” value is listed as “+ (compound exhibited 0-25% inhibition of calcium ion influx induced by capsaicin stimulation)”.

With `Cc1cc(NC(=O)c2ccc(-c3ncccc3Cl)cc2)nc(C)n1` [Compound 35], the “% Inhibition @ 1 uM” value is recorded as “+ (compound exhibited 0-25% inhibition of calcium ion influx induced by capsaicin stimulation)”.

As for `O=C(Nc1ccc(F)cc1)c1ccc(-c2ncccc2Cl)c(F)c1` [Compound 114], the “% Inhibition @ 1 uM” value was “+ (compound exhibited 0-25% inhibition of calcium ion influx induced by capsaicin stimulation)”.

Turning to `COc1ccc(NC(=O)c2ccc(-c3ncccc3Cl)c(OC)c2)cc1OC` [Compound 240], the “% Inhibition @ 1 uM” value is “+ (“+” compound exhibited 0-25% inhibition of calcium ion influx induced by capsaicin stimulation.)”.

`CN(C)c1cccc(NC(=O)c2ccc(-c3ncccc3Cl)cc2)c1` [Compound 43]: the “% Inhibition @ 1 uM” value is on record as “+ + + + (compound exhibited 75% or greater inhibition of calcium ion influx induced by capsaicin stimulation)”.

With `O=C(Nc1ccc(F)c(F)c1)c1ccc(-c2ncccc2Cl)c(F)c1` [Compound 178], the “% Inhibition @ 1 uM” value is “+ + + (compound exhibited 50-75% inhibition of calcium ion influx induced by capsaicin stimulation)”.

Turning to `O=C(Nc1ccc2ncccc2c1)c1ccc(-c2ncccc2Cl)c(F)c1` [Compound 156], the “% Inhibition @ 1 uM” value is on record as “+ + + + (compound exhibited 75% or greater inhibition of calcium ion influx induced by capsaicin stimulation)”.

Consider `COc1ccc(NC(=O)c2ccc(-c3ncccc3Cl)cn2)cn1` [Compound 324], for which the “% Inhibition @ 1 uM” value is recorded as “+ + (“+ +” compound exhibited 25-50% inhibition of calcium ion influx induced by capsaicin stimulation.)”.

Source of the values: patent US20050197364A1, “Amide compounds as ion channel ligands and uses thereof” (priority 2003, published 2005).
